According to patent publication US20050037446A1, “Agents that recognize src when phosphorylated at serine 17” (priority 2001, published 2005):

Assays:
Format in all cases: cell-based
[1] = test system: complex including C3G, Crk-L, and Cb1; test: Cb1/Crk-L/C3G complex formation (myc-Cb1 immunoprecipitation), NIH3T3 cells
Description: To determine if Cb1 forms part of a complex, cells were stimulated with Forskolin in the presence or absence of H89 or PP2 and lysates generated as described above. Myc-Cb1 was immunoprecipitated from treated cells and the pellets analyzed by Western blot using antibodies specific for Crk-L and C3G. Total cell lysates were examined for myc-Cb1 by Western blot using a myc antibody (Santa Cruz Biotechnology Inc.). NIH3T3 cells express Crk-L, an isoform of Crk that is constitutively bound to C3G.

AKT = AKT phosphothreonine 308 Western blot, Hek293 cells
Protocol: To determine the physiological role of Ras signaling in Hek293 cells, a well-known Ras effector, phosphoinositol-3 kinase (PI3-K) and its target, AKT (a serine/threonine kinase which participates in a variety of cellular effects including cell survival, adhesion, and cell growth) were examined as follows. Hek293 cells received no pretreatment or were pretreated for 20 minutes with H89 (10 μM), PP2 (10 μM), or LY (10 μM), and stimulated for 5 minutes with isoproterenol. Cell lysates were analyzed by Western blotting for phospho-AKT (PAKT 308, Cell Signaling, Beverly, Mass.) or total AKT (Cell Signaling) as a control. Isoproterenol activated AKT, as measured by phosphorylation-specific antibodies to phosphothreonine 308 (AKT). This phosphorylation required P13-K as LY blocked isoproterenol-induced phosphorylation at this site. Moreover, this phosphorylation was blocked by PP2, but not H89, indicating the requirement of SFKs, but not PKA. Therefore, isoproterenol's activation of AKT proceeds through Src and PI3-K but not PKA.
Similar amounts of cell lysate (determined by protein concentrations) were immunoprecipitated using an agarose-coupled HA antibody followed by Western blotting for phospho-AKT (PHA-AKT 308) or total HA-AKT with an HA antibody (12CA5, Boehringer Mannheim, Indianapolis, Ind.).

Rap1 = Rap1 activation affinity assay (GST-RalGDS pull-down), NIH3T3 cells
Protocol: NIH3T3 cells (American Type Culture Collection, ATCC, Manassas, Va.) were cultured in Dulbecco-Modified Eagle Medium (DMEM) plus 10% fetal calf serum, penicillin/streptomycin, and L-glutamine at 37° C. in 5% CO2. Cells were maintained in serum-free DMEM for 16 hours at 37° C. in 5% CO2 prior to treatment. NIH3T3 cells were trasfected with Flag-Rap1 (see Vossler et al., Cell, 89:73-82, 1997) or stimulated with Forskolin (10 μM, Cal Biochem, Riverside, Calif.) for five minutes. Forskolin treated cells received either a pretreatment or post-treatment with 10 μM N-[2(Bromocimamylamino) ethyl]-5-isoquinolinesulfonamide (H89) (Cal Biochem, Riverside, Calif.) for 20 minutes.
Cells were co-transfected with Flag-Rap1 at seventy to eighty percent confluency with the cDNA using a Lipofectamine 2000 kit (Gibco BRL, Rockville, Md.) according to the manufacturer's instructions. The control vector, pcDNA3 (Invitrogen Corp.), was included in each set of transfections to assure that each plate received the same amount of DNA. Following transfection, cells were allowed to recover in serum containing media for 24 hours. Cells were then starved overnight in serum-free DMEM before treatment and lysis.
After treatment, cells were lysed in ice-cold lysis buffer (50 mM Tris-HCL (pH 8.0), 10% glycerol, 1% nonidet P40, 200 mM NaCl, 2.5 mM MgCl2, 1 mM phenylmethylsulfonyl fluoride, 1 μM leupeptin, 10 μln soybean trypsin inhibitor, 10 mM NaF, 0.1 μM aprotinin, and 1 mM NaVO4). Nuclei and cytoskeleton were removed from equivalent amounts of lysate by centrifugation at 5,000 rpm for five minutes. The supernatant was centrifuged at 100,000×g for one hour at 4° C. and, the resultant membrane was resuspended in cold lysis buffer. Aliquots of the membrane fraction were analyzed for the presence of C3G by Western blotting. The cytosolic or membrane fractions of treated or untreated cells were mixed with equivalent amounts of lysates from untreated Flag-Rap1 transfected cells. The mixture was incubated at 37° C. for five minutes and equal amounts of lysate were analyzed using the Rap1 activation assay to monitor Flag-Rap 1 activation by Gst-RalGDS.
The Rap1 activation affinity assay was performed as follows. A GST fusion protein of the Rap1-binding domain of RalGDS (GST-RalGDS, Dr. Bos, Utrecht University, The Netherlands) was expressed in E. coli following induction by isopropyl-1thio-β-D-galactopyranoside. Active Rap1 was isolated as previously described (Franke et al., EMBO J. 16:252-9, 1997). Briefly, equivalent amounts of supernatants (500 μg) were incubated with GST-RalGDS-Rap1 binding domain coupled to glutathione beads. Following a one hour incubation at 4° C., beads were pelleted and rinsed threes times with ice-cold lysis buffer. […] Proteins were detected using enhanced chemiluminescence.

Cb1/C3G with Src = test: Co-immunoprecipitation of Src, Cb1 and C3G, Hek293 cells
Protocol: To examine whether a similar mechanism might underlie signaling from GPCRs, the following methods were used. Hek293 cells were transfected with Flag-tagged SrcWT, SrcS17A, or SrcS17D, using the methods disclosed herein. Cells were treated with 10 μM isoproterenol and equivalent amounts of lysates immunoprecipitated with Flag antibody. The presence of endogenous Cb1 within the eluates was examined by Western blotting. The ability of isoproterenol to induce Rap1-recruitment of B-Raf was blocked by both Cb1-ct and CBR.
Cells were treated with isoproterenol or left untreated and equal amounts of lysates immunoprecipitated with Myc antibody and the presence of endogenous C3G within the eluates examined by Westein blot using the methods disclosed herein.
Equivalent amounts of lysates were immunoprecipitated with Flag antibody and the presence of endogenous C3G within the eluates was examined by Western blots as described herein.

Compound	Effect on Forskolin-stimulated C3G/Crk-L/Cb1 complex formation [1]	Effect of inhibitor on isoproterenol-induced AKT phosphorylation (AKT; 10 μM, 20 minutes pretreatment)	Effect on Forskolin activation of Flag-Rap1 in trans (Rap1; added ten minutes after Forskolin)	Effect on Forskolin activation of Flag-Rap1 in trans (Rap1; pretreatment, 10 μM, 20 minutes)	Association between C3G and transfected Cb1 (Cb1/C3G with Src)	Activation of endogenous Rap1 (Rap1; NIH3T3 cells, 10 μM, five minutes)	Activation of AKT (phosphothreonine 308) (AKT; 5 minutes)
CC(C)(C)n1nc(-c2ccc(Cl)cc2)c2c(N)ncnc21 [PP2, 4-amino-5-(4-chlorophenyl)-7-(t-butyl)pyazolo[3,4-d]pyrimidine]	blocked	blocked	–	–	–	–	–
O=S(=O)(NCCNC/C=C/c1ccc(Br)cc1)c1cccc2cnccc12 [H89, N-[2(Bromocimamylamino)ethyl]-5-isoquinolinesulfonamide]	blocked	–	still able to activate Flag-Rap1 in trans	blocked	–	–	–
CC(C)NCC(O)c1ccc(O)c(O)c1 (centres unmarked) [isoproterenol]	–	–	–	–	induced an association	activated Rap1	activated AKT
